Source: US5869450A, “Anti-inflammatory compositions and method with corticotropin-releasing factor analogs” (priority 1996, dated 1999)
Non-standard residues stand in square brackets, D forms with d. No end group written: not given here.

Tests used:
heat-induced edema [1] = conditions: intravenous; Wei and Kiang 1989; cited from earlier work
ACTH release = experiment: Relative ACTH-releasing potency of singly D-substituted ovine CRF analogs (FIG. 1); conditions: relative to unmodified oCRF
Source text: Turning to FIG. 1, 37 different ovine CRF analogs were singly substituted with a D-amino acid and screened for suppression of heat-induced edema and relative ACTH-releasing potency. […]

CRF binding protein = target: T1, CRF binding protein (Homo sapiens, UniProt P24387); experiment: Complex formation of I125-labelled peptide with CRF-binding protein, Sephadex G100 column; conditions: radio-iodinated peptide, Sephadex G100 fractions
T1 sequence (P24387 25-322): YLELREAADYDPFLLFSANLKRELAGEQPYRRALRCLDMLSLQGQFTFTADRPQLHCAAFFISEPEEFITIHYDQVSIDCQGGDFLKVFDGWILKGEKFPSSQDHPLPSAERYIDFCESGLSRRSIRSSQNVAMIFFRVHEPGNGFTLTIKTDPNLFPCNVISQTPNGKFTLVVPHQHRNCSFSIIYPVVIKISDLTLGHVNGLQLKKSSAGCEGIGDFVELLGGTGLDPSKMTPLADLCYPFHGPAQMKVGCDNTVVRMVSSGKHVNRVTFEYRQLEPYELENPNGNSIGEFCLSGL
Protocol: Both peptides were radio-iodinated with I^125, incubated with CRF-binding protein, placed on a Sephadex G100 column and the fractions collected.

rat pituitary cells = experiment: In vitro ACTH release from rat pituitary segments, radioimmunoassay (FIG. 2); type: cell-based; conditions: ir-ACTH
Protocol: In determining ACTH release, an useful assay system to measure ACTH release by an in vitro assay is where basal or CRF-induced ACTH release is measured in the manner described by Vale et al. ("Assay of Corticotropin Releasing Factor," Methods in Enzymology: Neuroendocrine Peptides, 103, pp. 565-577, Conn. Ed., Academic Press, New York, 1983). The results shown in FIG. 2 were obtained by incubating the test peptides with segments of rat pituitary cells. After incubation the ACTH in the fluid bathing these segments were measured by radioimmunoassay (ir-ACTH) in units of pg of ACTH per mg of pituitary tissue. […] After the addition of CRF, this is increased in a dose-dependent relationship. […] However, the anti-edema potencies between these two peptides were identical.

CRF-R1 = target: T2, CRF-R1 (Rattus norvegicus, UniProt P35353); experiment: cAMP stimulation in 293-EBNA cells transfected with CRF-R1 (PC-CRF receptor); type: cell-based; conditions: for EC50: Table 2, cAMP, 293-EBNA stable transfectants
T2 construct: Cells were transfected with the full-length cDNA of these receptors; expressed in transfected cells
T2 sequence (P35353 24-415): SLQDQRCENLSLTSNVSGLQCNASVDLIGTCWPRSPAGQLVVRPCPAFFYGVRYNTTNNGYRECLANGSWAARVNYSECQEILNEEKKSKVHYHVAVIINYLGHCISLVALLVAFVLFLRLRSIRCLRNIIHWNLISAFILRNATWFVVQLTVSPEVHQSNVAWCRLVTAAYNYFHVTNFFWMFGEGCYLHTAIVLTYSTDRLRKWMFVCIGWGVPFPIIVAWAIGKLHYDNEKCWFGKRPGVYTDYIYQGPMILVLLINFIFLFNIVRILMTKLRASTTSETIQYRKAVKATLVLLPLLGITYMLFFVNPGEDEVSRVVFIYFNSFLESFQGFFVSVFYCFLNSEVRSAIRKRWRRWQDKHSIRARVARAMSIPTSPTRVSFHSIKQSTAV
Protocol: These were the pituitary-central nervous system (PC)-CRF receptor and the heart muscle (HM)-CRF receptor, also called CRF-R1 and CRF-R2β. Cells were transfected with the full-length cDNA of these receptors. […] Stable transfectants were incubated with 50 μM 3-isobutylmethyl-1-methylxanthine for 20 minutes at 37° C. and then peptides were added and incubated for another 20 minutes at 37° C. Levels of cAMP were assayed in sextuplicate. Cells transfected with these CRF receptors are sensitive to the cAMP stimulatory effects of CRF.

heat-induced edema [2] = experiment: Suppression of heat-induced edema in the anesthetized rat hind paw; type: in vivo
Protocol: The index of anti-inflammatory activity was measured as suppression by heat-induced edema. Briefly, male Sprague-Dawley rats weighing 200-250 g were anesthetized with sodium pentobarbital (60 mg/kg i.p.). Saline (1 ml/kg body weight) or test substances dissolved in saline were injected i.v. via a branch of the femoral vein. Ten minutes after injection, thermal stimulus was applied to the hind paw by immersion of the foot, up to the ankle joint, in 58° C. water for 1 minute. Thirty minutes after heat exposure, animals were killed by overdose with concentrated sodium pentobarbital and both hind paws were removed at the ankle joint and weighed. The degree of heat-induced edema was estimated as the difference between the weights of the heated and unheated paws divided by the weight of the unheated paw. Four to six analogs (N≥3 animals per dose level with 3 to 4 dose levels per analog) were tested on each occasion with concurrent saline controls. The median effective dose (ED50) was calculated according to the method of Litchfield and Wilcoxon (1949).

CRF-R2β = target: T3, CRF-R2β (Mus musculus, UniProt Q60748); experiment: cAMP stimulation in 293-EBNA cells transfected with CRF-R2β (HM-CRF receptor); type: cell-based; conditions: Table 2; for EC50: cAMP, 293-EBNA stable transfectants
T3 construct: Cells were transfected with the full-length cDNA of these receptors; expressed in transfected cells
Protocol: For another assay, two types of cloned CRF receptors were assessed for their responses to the CRF analogs. These were the pituitary-central nervous system (PC)-CRF receptor and the heart muscle (HM)-CRF receptor, also called CRF-R1 and CRF-R2β. Cells were transfected with the full-length cDNA of these receptors. These procedures were performed according to Chang et al., Neuron, 11, pp. 1187-1195 (1993) and Kishimoto et al., Proc. Natl. Acad. Sci. USA, 92, pp. 1108 (1995). cDNAS for the PC-CRF receptor and the HM-CRF receptor were subcloned into expression vector pCEP4 and transfected into 293-EBNA cells. Stable transfectants were incubated with 50 μM 3-isobutylmethyl-1-methylxanthine for 20 minutes at 37° C. and then peptides were added and incubated for another 20 minutes at 37° C. Levels of cAMP were assayed in sextuplicate. Cells transfected with these CRF receptors are sensitive to the cAMP stimulatory effects of CRF. […] As noted previously, the anti-inflammatory potency of these two analogs were also identical.

[3] = i.v. 10 min before 58° C. water for 1 minute, paw weight 30 min after heat, 95% CL in brackets

T3 sequence (Q60748 1-431 isoform Q60748-2): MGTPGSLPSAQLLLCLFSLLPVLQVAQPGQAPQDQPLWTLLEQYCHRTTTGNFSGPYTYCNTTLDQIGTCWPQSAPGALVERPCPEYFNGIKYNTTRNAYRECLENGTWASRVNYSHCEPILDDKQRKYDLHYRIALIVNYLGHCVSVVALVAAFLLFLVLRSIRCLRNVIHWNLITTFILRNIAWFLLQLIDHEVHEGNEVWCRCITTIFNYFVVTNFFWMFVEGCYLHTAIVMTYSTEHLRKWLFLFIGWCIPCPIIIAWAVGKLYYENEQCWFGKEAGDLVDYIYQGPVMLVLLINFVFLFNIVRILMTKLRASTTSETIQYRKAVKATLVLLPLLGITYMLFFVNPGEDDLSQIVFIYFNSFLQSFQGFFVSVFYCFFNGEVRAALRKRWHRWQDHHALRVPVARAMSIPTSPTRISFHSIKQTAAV

NDDPPISIDLTFHLLRNMIEMARIENEREQAGLNRKYLDEV-NH2 (C-terminus assumed) [white sucker fish urotensin I]
ED50 for suppression of heat-induced edema in the rat (heat-induced edema [1]): 1.5 nmol/kg

CC[C@H](C)[C@H](NC(=O)[C@H](CC(=O)O)NC(=O)[C@H](CC(C)C)NC(=O)[C@H](CC(C)C)NC(=O)[C@H](CCCCN)NC(=O)[C@H](CCCNC(=N)N)NC(=O)[C@H](CC(N)=O)NC(=O)[C@H](CO)NC(=O)[C@H](Cc1c[nH]cn1)NC(=O)[C@H](C)NC(=O)[C@H](CCC(N)=O)NC(=O)[C@H](CCC(N)=O)NC(=O)[C@H](C)NC(=O)[C@H](CC(C)C)NC(=O)[C@H](CCC(N)=O)NC(=O)[C@H](CC(=O)O)NC(=O)[C@H](C)NC(=O)[C@H](CCCCN)NC(=O)[C@@H](NC(=O)[C@H](CCSC)NC(=O)[C@H](CCC(=O)O)NC(=O)[C@H](CC(C)C)NC(=O)[C@@H](NC(=O)[C@H](CCC(=O)O)NC(=O)[C@H](CCCNC(=N)N)NC(=O)[C@H](CC(C)C)NC(=O)[C@H](CC(C)C)NC(=O)[C@H](Cc1c[nH]cn1)NC(=O)[C@H](Cc1ccccc1)NC(=O)[C@@H](NC(=O)[C@H](CC(C)C)NC(=O)[C@H](CC(=O)O)NC(=O)[C@H](CC(C)C)NC(=O)[C@H](CO)NC(=O)[C@@H](NC(=O)[C@H]1CCCN1C(=O)[C@@H]1CCCN1C(=O)[C@H](CCC(=O)O)NC(=O)[C@H](CCC(N)=O)NC(=O)[C@@H](N)CO)[C@@H](C)CC)[C@@H](C)O)C(C)C)[C@@H](C)O)C(=O)N[C@@H](C)C(N)=O [[D-Pro^5]oCRF]
ACTH-releasing potency retained relative to the unmodified peptide (ACTH release): 8%

CC[C@H](C)[C@H](NC(=O)[C@@H](NC(=O)[C@H](CC(=O)O)NC(=O)[C@H](CC(C)C)NC(=O)[C@H](CC(C)C)NC(=O)[C@H](CC(C)C)NC(=O)[C@H](CCCNC(=N)N)NC(=O)[C@H](CC(N)=O)NC(=O)[C@H](CC(N)=O)NC(=O)[C@H](C)NC(=O)[C@H](C)NC(=O)[C@H](CCC(N)=O)NC(=O)[C@H](CCC(N)=O)NC(=O)[C@H](CCCCN)NC(=O)[C@H](CCC(=O)O)NC(=O)[C@H](CCCCN)NC(=O)[C@H](CCC(=O)O)NC(=O)[C@H](CCC(N)=O)NC(=O)[C@H](CCCCN)NC(=O)[C@H](CCC(=O)O)NC(=O)[C@@H](NC(=O)[C@H](CCC(=O)O)NC(=O)[C@@H](NC(=O)[C@H](CCSC)NC(=O)[C@H](CCCCN)NC(=O)[C@H](CCCNC(=N)N)NC(=O)[C@H](CC(C)C)NC(=O)[C@H](CC(C)C)NC(=O)[C@H](CCC(=O)O)NC(=O)[C@H](CC(C)C)NC(=O)[C@H](CO)NC(=O)[C@H](CC(C)C)NC(=O)[C@H](CC(=O)O)NC(=O)[C@@H](NC(=O)[C@H](CO)NC(=O)[C@@H](NC(=O)[C@@H]1CCCN1C(=O)[C@@H]1CCCN1C(=O)CNC(=O)[C@@H]1CCC(=O)N1)[C@@H](C)CC)[C@@H](C)CC)[C@@H](C)CC)[C@@H](C)CC)[C@@H](C)O)C(N)=O [sauvagine]
ED50 for suppression of heat-induced edema in the rat (heat-induced edema [1]): 0.44 nmol/kg

[D-Pro^5 ] human/rat CRF [[D-Pro^5]h/rCRF]
complex formation with CRF-binding protein (CRF binding protein): formed a complex with binding protein
decrease of potency for ACTH release versus CRF (rat pituitary cells): at least 10 fold
change of potency for CRF-R1 after replacement of Pro5 by D-Pro (CRF-R1; FIG. 3, versus h/rCRF): reduced by about six-fold
ED50 (95% CL) μg/kg i.v. (heat-induced edema [2]; Table 3, i.v.): 10 µg/kg
ED50 (95% CL) μg/kg i.v. (heat-induced edema [2]; [3]): 10 (3-33) μg/kg

CC[C@H](C)[C@H](NC(=O)[C@H](CO)NC(=O)[C@H](CC(C)C)NC(=O)[C@@H]1CCCN1C(=O)[C@@H]1CCCN1C(=O)[C@H](CC(=O)O)NC(=O)[C@@H](N)CC(=O)O)C(=O)N[C@@H](CC(=O)O)C(=O)N[C@@H](CC(C)C)C(=O)N[C@H](C(=O)N[C@@H](Cc1ccccc1)C(=O)N[C@@H](Cc1c[nH]cn1)C(=O)N[C@@H](CC(C)C)C(=O)N[C@@H](CC(C)C)C(=O)N[C@@H](CCCNC(=N)N)C(=O)N[C@H](C(=O)N[C@@H](CC(C)C)C(=O)N[C@@H](CC(C)C)C(=O)N[C@@H](CCC(=O)O)C(=O)N[C@@H](CC(C)C)C(=O)N[C@@H](C)C(=O)N[C@@H](CCCNC(=N)N)C(=O)N[C@H](C(=O)N[C@@H](CCC(N)=O)C(=O)N[C@@H](CO)C(=O)N[C@@H](CCC(N)=O)C(=O)N[C@@H](CCCNC(=N)N)C(=O)N[C@@H](CCC(=O)O)C(=O)N[C@@H](CCCNC(=N)N)C(=O)N[C@@H](C)C(=O)N[C@@H](CCC(=O)O)C(=O)N[C@@H](CCC(N)=O)C(=O)N[C@@H](CC(N)=O)C(=O)N[C@@H](CCCNC(=N)N)C(=O)N[C@H](C(=O)N[C@H](C(=O)N[C@@H](Cc1ccccc1)C(=O)N[C@@H](CC(=O)O)C(=O)N[C@@H](CO)C(=O)N[C@H](C(N)=O)C(C)C)[C@@H](C)CC)[C@@H](C)CC)[C@@H](C)O)[C@@H](C)O)[C@@H](C)O [urocortin (rat), reference compound]
EC50 (CRF-R1): 0.15 nM
EC50 (CRF-R2β): 0.32 nM

NDDP[dP]ISIDLTFHLLRNMIEMARIENEREQAGLNRKYLDEV-NH2 [[D-Pro^5]white sucker fish urotensin I]
ED50 (95% CL) μg/kg i.v. (heat-induced edema [2]; [3]): 9 (5-17) μg/kg

CC[C@H](C)[C@H](NC(=O)[C@H](CO)NC(=O)[C@H](CC(C)C)NC(=O)[C@H]1CCCN1C(=O)[C@@H]1CCCN1C(=O)[C@H](CC(=O)O)NC(=O)[C@@H](N)CC(=O)O)C(=O)N[C@@H](CC(=O)O)C(=O)N[C@@H](CC(C)C)C(=O)N[C@H](C(=O)N[C@@H](Cc1ccccc1)C(=O)N[C@@H](Cc1c[nH]cn1)C(=O)N[C@@H](CC(C)C)C(=O)N[C@@H](CC(C)C)C(=O)N[C@@H](CCCNC(=N)N)C(=O)N[C@H](C(=O)N[C@@H](CC(C)C)C(=O)N[C@@H](CC(C)C)C(=O)N[C@@H](CCC(=O)O)C(=O)N[C@@H](CC(C)C)C(=O)N[C@@H](C)C(=O)N[C@@H](CCCNC(=N)N)C(=O)N[C@H](C(=O)N[C@@H](CCC(N)=O)C(=O)N[C@@H](CO)C(=O)N[C@@H](CCC(N)=O)C(=O)N[C@@H](CCCNC(=N)N)C(=O)N[C@@H](CCC(=O)O)C(=O)N[C@@H](CCCNC(=N)N)C(=O)N[C@@H](C)C(=O)N[C@@H](CCC(=O)O)C(=O)N[C@@H](CCC(N)=O)C(=O)N[C@@H](CC(N)=O)C(=O)N[C@@H](CCCNC(=N)N)C(=O)N[C@H](C(=O)N[C@H](C(=O)N[C@@H](Cc1ccccc1)C(=O)N[C@@H](CC(=O)O)C(=O)N[C@@H](CO)C(=O)N[C@H](C(N)=O)C(C)C)[C@@H](C)CC)[C@@H](C)CC)[C@@H](C)O)[C@@H](C)O)[C@@H](C)O [[D-Pro^4]urocortin (rat)]
EC50 (CRF-R1): 0.2 nM
Increment in Selectivity (CRF-R2β; D-substituted analog versus parent peptide): 2.5 fold
EC50 (CRF-R2β): 1 nM

SEEP[dP]ISLDLTFHLLREVLEMTKADQLAQQAHSNRKLMEII-NH2 [[D-Pro^5, Thr^22, Lys^23, Asp^25]h/rCRF]
complex formation with CRF-binding protein (CRF binding protein): did not form a complex with binding protein
ED50 (95% CL) μg/kg i.v. (heat-induced edema [2]; Table 3, i.v.): 19 µg/kg
ED50 (95% CL) μg/kg i.v. (heat-induced edema [2]; [3]): 19 (9-38) μg/kg
